Laboratory results published in patent publication US20030166932A1 (priority 2002, published 2003).

What was measured:
RARα = molecular target: T1, RARα (Homo sapiens, UniProt P10276); experiment: chimeric receptor transactivation assay; format: cell-based
T1 sequence (P10276 1-462): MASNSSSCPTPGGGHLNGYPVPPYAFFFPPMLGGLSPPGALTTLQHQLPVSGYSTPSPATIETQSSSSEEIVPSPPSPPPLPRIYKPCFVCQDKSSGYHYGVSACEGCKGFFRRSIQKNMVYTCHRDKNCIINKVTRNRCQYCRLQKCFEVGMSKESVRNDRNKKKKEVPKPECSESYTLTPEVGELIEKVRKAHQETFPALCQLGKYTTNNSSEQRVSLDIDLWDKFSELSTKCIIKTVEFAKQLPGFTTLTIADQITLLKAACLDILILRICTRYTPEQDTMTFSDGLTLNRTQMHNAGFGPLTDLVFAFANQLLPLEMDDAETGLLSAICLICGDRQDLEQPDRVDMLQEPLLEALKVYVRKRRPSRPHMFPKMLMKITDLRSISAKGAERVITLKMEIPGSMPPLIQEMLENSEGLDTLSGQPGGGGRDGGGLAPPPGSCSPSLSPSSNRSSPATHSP
Text: The specification of U.S. Pat. No. 5,455,265 is hereby expressly incorporated by reference.

RXRβ [1] = molecular target: T2, RXRβ (UniProt P28704); experiment: holoreceptor transactivation assay; format: cell-based
T2 sequence (P28704 1-520): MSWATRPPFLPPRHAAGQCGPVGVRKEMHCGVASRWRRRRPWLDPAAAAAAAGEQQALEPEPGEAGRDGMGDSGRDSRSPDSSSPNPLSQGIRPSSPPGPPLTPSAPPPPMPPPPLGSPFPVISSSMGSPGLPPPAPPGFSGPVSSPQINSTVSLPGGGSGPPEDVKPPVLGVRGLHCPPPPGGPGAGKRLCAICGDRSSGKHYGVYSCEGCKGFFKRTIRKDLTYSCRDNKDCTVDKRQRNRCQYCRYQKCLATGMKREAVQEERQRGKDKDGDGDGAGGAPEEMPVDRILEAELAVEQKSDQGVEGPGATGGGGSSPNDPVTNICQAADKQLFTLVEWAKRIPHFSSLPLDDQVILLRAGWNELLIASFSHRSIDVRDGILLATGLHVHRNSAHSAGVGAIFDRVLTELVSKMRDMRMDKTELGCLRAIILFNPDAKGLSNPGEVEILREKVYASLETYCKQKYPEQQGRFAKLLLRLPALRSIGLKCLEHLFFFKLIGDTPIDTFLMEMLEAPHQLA
Text: (§1) The results obtained in this assay are expressed in EC50 numbers, as they are also in the chimeric receptor transactivation assay. The results of ligand binding assay are expressed in Kd numbers.
(§2) Particularly, the transactivation data pertaining to RAR receptors were obtained in the chimeric assay, and the data pertaining to transactivation of RXR receptors were obtained in the holoreceptor transactivation assay.

RXRγ = molecular target: T3, RXRγ (UniProt P28705); experiment: holoreceptor transactivation assay; format: cell-based
T3 sequence (P28705 1-463): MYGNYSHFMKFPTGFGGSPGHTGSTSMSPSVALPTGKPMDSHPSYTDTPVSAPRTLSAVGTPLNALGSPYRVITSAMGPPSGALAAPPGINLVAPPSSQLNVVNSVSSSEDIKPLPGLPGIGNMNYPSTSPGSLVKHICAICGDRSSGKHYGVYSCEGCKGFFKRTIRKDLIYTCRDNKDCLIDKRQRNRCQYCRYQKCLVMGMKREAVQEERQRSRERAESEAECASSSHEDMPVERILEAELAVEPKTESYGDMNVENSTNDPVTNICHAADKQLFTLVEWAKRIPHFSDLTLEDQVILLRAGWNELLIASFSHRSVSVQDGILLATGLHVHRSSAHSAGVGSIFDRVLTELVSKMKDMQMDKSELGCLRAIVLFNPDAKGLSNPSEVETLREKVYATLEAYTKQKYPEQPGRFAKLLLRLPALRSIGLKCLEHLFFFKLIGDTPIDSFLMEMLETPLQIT
Text: as §1, §2

RARβ = molecular target: T4, RARβ (Homo sapiens, UniProt P10826); experiment: ligand binding assay; conditions: read-out: RAR Bind. Ki (nM) β
T4 sequence (P10826 1-455): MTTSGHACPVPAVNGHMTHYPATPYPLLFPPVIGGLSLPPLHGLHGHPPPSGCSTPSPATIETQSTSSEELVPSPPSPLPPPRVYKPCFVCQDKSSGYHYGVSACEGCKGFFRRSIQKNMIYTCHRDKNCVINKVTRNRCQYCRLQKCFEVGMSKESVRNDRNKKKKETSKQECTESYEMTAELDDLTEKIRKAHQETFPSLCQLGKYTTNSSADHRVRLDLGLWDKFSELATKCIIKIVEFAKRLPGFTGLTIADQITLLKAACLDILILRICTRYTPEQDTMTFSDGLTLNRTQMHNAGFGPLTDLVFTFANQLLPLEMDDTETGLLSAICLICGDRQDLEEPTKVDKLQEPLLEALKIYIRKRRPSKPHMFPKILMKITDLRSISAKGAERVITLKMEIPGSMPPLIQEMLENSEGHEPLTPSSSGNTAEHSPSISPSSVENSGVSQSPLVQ
Text: as §1, §2

RARγ = molecular target: T5, RARγ (Homo sapiens, UniProt P13631); experiment: ligand binding assay; conditions: read-out: RAR Bind. Ki (nM) Y
T5 sequence (P13631 1-454): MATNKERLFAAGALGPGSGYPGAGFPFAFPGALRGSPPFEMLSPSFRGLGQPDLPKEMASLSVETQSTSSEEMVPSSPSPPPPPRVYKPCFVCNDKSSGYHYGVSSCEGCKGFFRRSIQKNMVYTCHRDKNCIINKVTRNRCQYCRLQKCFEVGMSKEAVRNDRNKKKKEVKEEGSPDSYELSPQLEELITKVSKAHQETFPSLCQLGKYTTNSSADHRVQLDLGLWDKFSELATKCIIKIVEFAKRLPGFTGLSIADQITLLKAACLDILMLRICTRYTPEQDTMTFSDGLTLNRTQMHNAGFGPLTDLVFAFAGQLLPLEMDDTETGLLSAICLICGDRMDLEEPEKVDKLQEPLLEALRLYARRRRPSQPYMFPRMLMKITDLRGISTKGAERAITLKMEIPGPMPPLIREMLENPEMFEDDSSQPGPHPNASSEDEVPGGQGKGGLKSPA
Text: as §1, §2

RXRβ [2] = molecular target: T2, RXRβ; experiment: ligand binding assay; conditions: read-out: RXR Bind Ki (nM) β
Text: as §1, §2

RXRα [3] = molecular target: T6, RXRα (Homo sapiens, UniProt P19793); experiment: ligand binding assay
T6 sequence (P19793 1-462): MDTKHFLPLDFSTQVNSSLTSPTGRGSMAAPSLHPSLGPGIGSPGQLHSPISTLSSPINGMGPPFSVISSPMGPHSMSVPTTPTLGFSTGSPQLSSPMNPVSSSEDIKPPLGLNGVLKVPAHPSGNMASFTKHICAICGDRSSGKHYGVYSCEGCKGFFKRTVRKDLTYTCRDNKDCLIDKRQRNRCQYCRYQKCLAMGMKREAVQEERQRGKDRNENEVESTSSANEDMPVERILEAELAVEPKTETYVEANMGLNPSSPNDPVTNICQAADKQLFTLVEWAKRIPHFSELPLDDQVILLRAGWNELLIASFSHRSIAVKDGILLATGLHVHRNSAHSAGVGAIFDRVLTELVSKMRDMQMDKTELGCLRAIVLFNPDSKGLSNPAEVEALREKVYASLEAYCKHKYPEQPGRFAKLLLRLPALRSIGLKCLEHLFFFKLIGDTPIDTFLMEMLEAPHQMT
Text: as §1, §2

RXRα [4] = molecular target: T6, RXRα; experiment: holoreceptor transactivation assay
Text: as §1, §2

CCN(c1ccc(C(=O)O)cc1)c1cc2c(cc1C)C(C)(C)CC=C2C(C)(C)C [Compound 26, 4-[Ethyl(8-t-butyl-3,5,5-trimethyl-5,6-dihydronaphthalen-2-yl)amino]benzoic acid]
EC50 (RARα; NA = Not Active, read-out: RAR Trans. EC50 (nM) α): 0.5 nM | Emax (RARα; relative to 10^−6 M ATRA, read-out: % efficacy, RAR Trans. α): 10% | EC50 (RXRβ [1]; NA = Not Active, read-out: RXR Trans. EC50 (nM) β): 4 nM | % efficacy, RXR Trans. β (RXRβ [1]; relative to 10^−6 M AGN 194204): (84) % | EC50 (RXRγ; NA = Not Active, read-out: RXR Trans. EC50 (nM) Y): 0.5 nM | % efficacy, RXR Trans. Y (RXRγ; relative to 10^−6 M AGN 194204): (90) % | Ki (RARβ): 1300 nM | Ki (RARγ): 4000 nM | Ki (RXRβ [2]): 30 nM | Ki (RXRα [3]): 7 nM | EC50 (RXRα [4]): 0.3 nM | Emax (RXRα [4]; read-out: % efficacy, RXR Trans. α): 85%
